≈ marks a conversion by molar mass, not a printed value.
Columns and labels:
gram-positive bacteria = conditions: taught by U.S. Pat. No. 3,459,853; cited from earlier work
[1] = test system: Ureaplasma isolate 779T-3; test: conventional broth-dilution assay, MIC against Ureaplasma isolate 779T-3; assay type: cell-based
Text: (§1) For example, in the conventional broth-dilution assay, OMT had minimal inhibitory concentrations (MIC's) against four isolates of Ureaplasma as shown in Table I.

[2] = test system: Ureaplasma isolate 765T-3; test: conventional broth-dilution assay, MIC against Ureaplasma isolate 765T-3; assay type: cell-based
Text: as §1

[3] = test system: Ureaplasma isolate 763T-2; test: conventional broth-dilution assay, MIC against Ureaplasma isolate 763T-2; assay type: cell-based
Text: as §1

Pasteurella species = test: Treatment of pneumonia in calves (Example 1): control of Pasteurella; assay type: in vivo
Experimental: (§2) OMT was evaluated in calves for the treatment of naturally occurring pneumonia. Calves were purchased and transported to Lilly Research Laboratories, Greenfield, Indiana. The calves were weighed, bled, identified with eartags and allotted into pens soon after arrival. Rectal temperatures were taken and clinical observations were made daily.
(§3) Calves were put on test at the first signs of respiratory disease which included ocular and nasal discharges, pyrexia and/or depression.
(§4) Treated calves were injected intramuscularly with OMT in an aqueous propylene glycol vehicle. The treatment doses evaluated were 12.5 mg/kg and 25 mg/kg once a day for five days. Control calves were treated with placebo. There were 10 calves per group. Calves that died were examined at necropsy for lesions indicative of pneumomia. Surviving calves were killed seven days after the last treatment and examined for lesions at necropsy.

[4] = Prevention of naturally occurring pneumonia in calves with OMT (Example 2); assay type: in vivo; conditions: for cumulative mortality: 19 calves per group
Experimental: OMT was evaluated in calves for the prevention and control of naturally occurring pneumonia. Calves were purchased and transported to Lilly Research Laboratories, Greenfield, Ind. Soon after arrival the calves were weighed, bled, identified with eartags and allotted into pens. There were 19 calves in the OMT-treated group and 19 calves in the nontreated control group.
OMT was prepared as an injectable in an aqueous propylene glycol vehicle. The treated calves were each injected subcutaneously with 35 mg/lb (77 mg/kg) of OMT within a day after arrival. At this dose and route of administration, the drug was expected, based on blood level studies, to persist for seven days in the treated calves. The calves were each retreated with the same dose seven days later. Rectal temperatures were taken and clinical observations were made daily. Calves that died were examined at necropsy for lesions indicative of pneumonia.

[5] = Treatment of naturally occurring pneumonia in calves with OMT (Example 1); assay type: in vivo; conditions: for temperature averages of the calves: controls remained above 40° C. for 10 days; for calves that died: six of ten placebo-treated died
Experimental: Example one illustrates the useful in vivo activity of OMT against Ureaplasma. In the example OMT (free base) was administered in an aqueous propylene glycol solution, and non-medicated water and feed were provided to the animals ad libitum.
as §2, §3, §4

Ureaplasma species [6] = test: Treatment of pneumonia in calves (Example 1): isolation of Ureaplasma from lung tissue; assay type: in vivo
Experimental: as §2, §3, §4

[7] = test system: Ureaplasma isolate 773T-2; test: conventional broth-dilution assay, MIC against Ureaplasma isolate 773T-2; assay type: cell-based
Text: as §1

Ureaplasma species [8] = conditions: background statement; cited from earlier work
[9] = 12.5 mg/kg intramuscular once a day for five days
[10] = 25 mg/kg intramuscular once a day for five days
[11] = 77 mg/kg subcutaneous, repeated after seven days, 14-day observation

CCC1OC(=O)CC(O)C(C)C(OC2OC(C)C(O)C(N(C)C)C2O)C(CC=O)CC(C)C(=O)C=CC(C)=CC1CO (stereo not drawn) [OMT, 5-O-mycaminosyl tylonolide]
inhibition of gram-positive bacteria (gram-positive bacteria): inhibited gram-positive bacteria | MIC [1]: 1.56 µg/mL (≈ 2.61 µM) | MIC [2]: 1.56 µg/mL (≈ 2.61 µM) | MIC [3]: 0.78 µg/mL (≈ 1.3 µM) | control of Pasteurella species associated with this pneumonia (Pasteurella species; [9]): effectively controlled | control of Pasteurella species associated with this pneumonia (Pasteurella species; [10]): effectively controlled | preventing death of calves due to a severe pneumonia ([4]; 77 mg/kg subcutaneous, repeated after seven days): very effective in preventing death of calves | Scours [4, 11]: less severe | nasal and ocular discharges [4, 11]: less severe | average temperatures ([4]; 77 mg/kg subcutaneous, repeated after seven days, 14-day observation, vs non-medicated controls): lower | alertness and condition of calves ([4]; 77 mg/kg subcutaneous, repeated after seven days, vs controls): more alert and in better condition than the controls | cumulative mortality ([4]; day 1, control 0): 0 | cumulative mortality ([4]; day 2, control 0): 0 | cumulative mortality ([4]; day 3, control 0): 0 | cumulative mortality ([4]; day 4, control 1): 0 | cumulative mortality ([4]; day 5, control 3): 0 | cumulative mortality ([4]; day 6, control 5): 0 | cumulative mortality ([4]; day 7, control 5): 0 | cumulative mortality ([4]; day 8, control 5): 0 | cumulative mortality ([4]; day 9, control 9): 0 | cumulative mortality ([4]; day 10, control 11): 0 | cumulative mortality ([4]; day 11, control 13): 0 | cumulative mortality ([4]; day 12, control 14): 0 | cumulative mortality ([4]; day 13, control 14): 2 | cumulative mortality ([4]; day 14, control 15): 3 | calves that died with extensive pathologic lesions indicative of severe pneumonia ([4]; necropsy, 14 of the 15 control calves): 3 calves | Scours [5, 9]: reduced | ocular discharge [5, 9]: reduced | temperature averages of the calves [5, 9]: lowered to normal by the second day of treatment | calves that died [5, 9]: two of ten | Scours [5, 10]: reduced | ocular discharge [5, 10]: reduced | temperature averages of the calves [5, 10]: lowered to normal by the second day of treatment | calves that died [5, 10]: two of ten | Ureaplasma species isolated from lung tissue (Ureaplasma species [6]; 12.5 mg OMT/kg intramuscular once a day for five days, also isolated with placebo): isolated from lung tissue | elimination of the Ureaplasma species from the animals (Ureaplasma species [6]; [10]): eliminated the Ureaplasma species | Ureaplasma species isolated from calves (Ureaplasma species [6]; 25 mg/kg intramuscular once a day for five days, isolated from lung tissue of placebo calves): not isolated | MIC [7]: 1.56 µg/mL (≈ 2.61 µM)

CCC[C@@H]1C[C@@H](C(=O)N[C@@H]([C@H]2O[C@H](SC)[C@H](O)[C@@H](O)[C@H]2O)[C@@H](C)O)N(C)C1 [lincomycin]
resistance of Ureaplasma species (Ureaplasma species [8]): resistant
